biological target: T1, human TLR7 (Homo sapiens, UniProt Q9NYK1); assay: Human TLR7 Assay (SEAP reporter in HEK293 cells); format: cell-based; conditions: HEK293 cell line expressing human TLR7 and pNiFty2-SEAP reporter, overnight incubation at 37° C., 0.1% DMSO; read-out: hTLR7 EC50;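 also: Read-out is secreted alkaline phosphatase made under an NFkB/ELAM-1 composite promoter, reporting TLR7-triggered NFkB activation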
T1 construct: expressed in transfected cells; host or cells: HEK293 cell line stably expressing the pNiFty2-SEAP reporter plasmid; TLR7 in pUNO vector, blasticidin selection
T1 sequence (Q9NYK1 27-1049): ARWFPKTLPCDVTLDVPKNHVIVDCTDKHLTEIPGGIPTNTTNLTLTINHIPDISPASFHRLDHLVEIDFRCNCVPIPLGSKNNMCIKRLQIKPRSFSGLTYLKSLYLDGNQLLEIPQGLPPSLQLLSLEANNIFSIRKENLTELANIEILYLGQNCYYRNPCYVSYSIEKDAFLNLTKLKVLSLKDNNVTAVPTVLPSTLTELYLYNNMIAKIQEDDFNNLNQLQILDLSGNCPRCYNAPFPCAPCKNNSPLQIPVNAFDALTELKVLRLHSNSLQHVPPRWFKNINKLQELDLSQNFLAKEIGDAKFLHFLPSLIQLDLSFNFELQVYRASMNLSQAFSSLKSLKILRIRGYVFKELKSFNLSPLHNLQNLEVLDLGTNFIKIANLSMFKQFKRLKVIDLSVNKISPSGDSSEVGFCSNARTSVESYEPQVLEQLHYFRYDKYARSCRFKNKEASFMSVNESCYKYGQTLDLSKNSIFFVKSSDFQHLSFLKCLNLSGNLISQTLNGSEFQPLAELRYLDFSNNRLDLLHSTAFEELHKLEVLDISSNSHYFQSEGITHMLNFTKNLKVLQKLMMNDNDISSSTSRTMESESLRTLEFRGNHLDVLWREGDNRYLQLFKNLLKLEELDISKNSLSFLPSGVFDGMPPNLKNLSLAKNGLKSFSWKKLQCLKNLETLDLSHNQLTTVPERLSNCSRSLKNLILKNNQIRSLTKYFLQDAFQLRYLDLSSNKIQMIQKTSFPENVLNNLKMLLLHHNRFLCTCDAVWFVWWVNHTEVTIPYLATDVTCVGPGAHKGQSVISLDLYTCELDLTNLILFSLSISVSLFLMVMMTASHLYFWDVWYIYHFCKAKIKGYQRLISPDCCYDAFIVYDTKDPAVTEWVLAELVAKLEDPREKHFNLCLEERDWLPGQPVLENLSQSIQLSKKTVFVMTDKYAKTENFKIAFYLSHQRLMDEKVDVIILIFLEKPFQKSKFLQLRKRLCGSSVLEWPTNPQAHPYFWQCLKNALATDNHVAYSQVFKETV
Text: The most common variant sequence of human TLR7 (represented by the EMBL sequence AF240467) was cloned into the mammalian cell expression vector pUNO and transfected into a HEK293 cell line already stably expressing the pNiFty2-SEAP reporter plasmid; integration of the reporter gene was maintained by selection with the antibiotic zeocin. Transfectants with stable TLR7 expression were selected using the antibiotic blasticidin. In this reporter cell-line, expression of secreted alkaline phosphatase (SEAP) is controlled by an NFkB/ELAM-1 composite promoter comprising five NFkB sites combined with the proximal ELAM-1 promoter. TLR signaling leads to the translocation of NFkB and activation of the promoter results in expression of the SEAP gene. TLR7-specific activation was assessed by determining the level of SEAP produced following overnight incubation of the cells at 37° C. with the standard compound in the presence of 0.1% (v/v) dimethylsulfoxide (DMSO). Concentration dependent induction of SEAP production by compounds was expressed as the concentration of compound which produced half of the maximal level of SEAP induction for that compound (EC50).

EC50 | SMILES
139 nM | CCCCc1nc2c(N)nc3ccccc3c2n1CCCN(Cc1cccc(OCC(=O)OC(C)C)c1)C(=O)CN(C)C [Example 159, Isopropyl 2-[3-({N-[3-(4-amino-2-butyl-1H-imidazo[4,5-c]quinolin-1-yl)propyl]-2-(dimethylamino)acetamido}methyl)phenoxy]acetate]
46.4 nM | CCOC(=O)C(C)(C)Oc1cccc(CN(CCCn2c(CCOC)nc3c(N)nc4ccccc4c32)C(=O)CN(CC)CC)c1 [Example 55, Ethyl 2-{3-[(N-{3-[4-amino-2-(2-methoxyethyl)-1H-imidazo[4,5-c]quinolin-1-yl]propyl}-2-{diethylamino}acetamido)methyl]phenoxy}-2-methylpropanoate]
84.2 nM | CCOC(=O)COc1cc(CN(CCCn2c(CCOC)nc3c(N)nc4ccccc4c32)C(=O)CN(CC)CC)ccc1OC [Example 62, Ethyl 2-{5-[(N-{3-[4-amino-2-(2-methoxyethyl)-1H-imidazo[4,5-c]quinolin-1-yl]propyl}-2-{diethylamino}acetamido)methyl]-2-methoxyphenoxy}acetate]
82 nM | CCN(C)CC(=O)N(CCCn1c(CCOC)nc2c(N)nc3ccccc3c21)Cc1cccc(OC(C)(C)C(=O)OC)c1 [Example 151, Methyl 2-{3-[(N-{3-[4-amino-2-(2-methoxyethyl)-1H-imidazo[4,5-c]quinolin-1-yl]propyl}-2-{ethyl(methyl)amino}acetamido)methyl]phenoxy}-2-methylpropanoate]
24.7 nM | CCN(CC)CC(=O)N(CCCCn1c(CCOC)nc2c(N)nc3ccccc3c21)Cc1cccc(OCC(=O)OC(C)(C)C)c1 [Example 48, tert-Butyl 2-{3-[(N-{4-[4-amino-2-(2-methoxyethyl)-1H-imidazo[4,5-c]quinolin-1-yl]butyl}-2-{diethylamino}acetamido)methyl]phenoxy}acetate]
86.1 nM | CCCCc1nc2c(N)nc3ccccc3c2n1CCCN(Cc1cccc(OC(C)(C)C(=O)OCC)c1)C(=O)CN(CC)CC [Example 153, Ethyl 2-[3-({N-[3-(4-amino-2-butyl-1H-imidazo[4,5-c]quinolin-1-yl)propyl]-2-(diethylamino)acetamido}methyl)phenoxy]-2-methylpropanoate]
260 nM | CCCc1nc2c(N)nc3ccccc3c2n1CCCN(Cc1cccc(OCC(=O)OC(C)C)c1)C(=O)CN(CC)CC [Example 160, Isopropyl 2-[3-({N-[3-(4-amino-2-propyl-1H-imidazo[4,5-c]quinolin-1-yl)propyl]-2-(diethylamino)acetamido}methyl)phenoxy]acetate]
177 nM | CCOC(=O)COc1cccc(CN(CCCn2c(CCOC)nc3c(N)nc4ccccc4c32)C(=O)CN(C)C)c1 [Example 33, Ethyl 2-{3-[(N-{3-[4-amino-2-(2-methoxyethyl)-1H-imidazo[4,5-c]quinolin-1-yl]propyl}-2-(dimethylamino)acetamido)methyl]phenoxy}acetate]
130 nM | CCOC(=O)COc1cccc(CN(CCCCn2c(CCOC)nc3c(N)nc4ccccc4c32)C(=O)NCCCN2CCCCC2)c1 [Example 128, Ethyl 2-{3-[(1-{4-[4-amino-2-(2-methoxyethyl)-1H-imidazo[4,5-c]quinolin-1-yl]butyl}-3-{3-(piperidin-1-yl)propyl}ureido)methyl]phenoxy}acetate]
58.7 nM | CCOC(=O)COc1cccc(CN(CCCn2c(CCOC)nc3c(N)nc4ccccc4c32)C(=O)CN(CC)CC)c1 [Example 25, Ethyl 2-{3-[(N-{3-[4-amino-2-(2-methoxyethyl)-1H-imidazo[4,5-c]quinolin-1-yl]propyl}-2-(diethylamino)acetamido)methyl]phenoxy}acetate]
150 nM | CCOC(=O)COc1cccc(CN(CCCn2c(CCOC)nc3c(N)nc4ccccc4c32)C(=O)CN2CCCC2)c1 [Example 31, Ethyl 2-{3-[(N-{3-[4-amino-2-(2-methoxyethyl)-1H-imidazo[4,5-c]quinolin-1-yl]propyl}-2-(pyrrolidin-1-yl)acetamido)methyl]phenoxy}acetate]
> 10000 nM | CCN(CC)CC(=O)N(CCn1c(CCOC)nc2c(N)nc3ccccc3c21)Cc1cccc(OC(C)(C)C(=O)OC)c1 [Example 107, Methyl 2-{3-[(N-{2-[4-amino-2-(2-methoxyethyl)-1H-imidazo[4,5-c]quinolin-1-yl]ethyl}-2-{diethylamino}acetamido)methyl]phenoxy}-2-methylpropanoate]

More lines, now with the values behind:

SMILES | EC50
CCOC(=O)COc1ccccc1CN(CCCn1c(CCOC)nc2c(N)nc3ccccc3c21)C(=O)CN(CC)CC [Example 41, Ethyl 2-{2-[(N-{3-[4-amino-2-(2-methoxyethyl)-1H-imidazo[4,5-c]quinolin-1-yl]propyl}-2-(diethylamino)acetamido)methyl]phenoxy}acetate] | 137 nM
COCCc1nc2c(N)nc3ccccc3c2n1CCCNC(=O)N(CCCN(C)C)Cc1ccc(OCC(=O)OC)cc1 [Example 22, Methyl [4-({[({3-[4-amino-2-(2-methoxyethyl)-1H-imidazo[4,5-c]quinolin-1-yl]propyl}amino)carbonyl][3-(dimethylamino)propyl]amino}methyl)phenoxy]acetate] | 188 nM
CCOC(=O)COc1cccc(CN(CCn2c(CCOC)nc3c(N)nc4ccccc4c32)C(=O)CN(CC)CC)c1 [Example 101, Ethyl 2-{3-[(N-{2-[4-amino-2-(2-methoxyethyl)-1H-imidazo[4,5-c]quinolin-1-yl]ethyl}-2-{diethylamino}acetamido)methyl]phenoxy}acetate] | > 10000 nM
CCCCc1nc2c(N)nc3ccccc3c2n1CCCN(Cc1cccc(OCC(=O)OC)c1)C(=O)CN(CC)CC [Example 14, Methyl (3-{[[3-(4-amino-2-butyl-1H-imidazo[4,5-c]quinolin-1-yl)propyl](N,N-diethylglycyl)amino]methyl}phenoxy)acetate] | 73.6 nM
CCOCc1nc2c(N)nc3ccccc3c2n1CCCN(Cc1cccc(OC(C)(C)C(=O)OC)c1)C(=O)CN1CCCC1 [Example 171, Methyl 2-{3-[(N-{3-[4-amino-2-(ethoxymethyl)-1H-imidazo[4,5-c]quinolin-1-yl]propyl}-2-{pyrrolidin-1-yl}acetamido)methyl]phenoxy}-2-methylpropanoate] | 560 nM
COCCc1nc2c(N)nc3ccccc3c2n1CCCN(Cc1cccc(OCC(=O)OC(C)C)c1)C(=O)CN(C)CCOC [Example 115, Isopropyl 2-{3-[(N-{3-[4-amino-2-(2-methoxyethyl)-1H-imidazo[4,5-c]quinolin-1-yl]propyl}-2-{(2-methoxyethyl)(methyl)amino}acetamido)methyl]phenoxy}acetate] | 173 nM
CCOC(=O)C(C)(C)Oc1cccc(CN(CCCn2c(CCOC)nc3c(N)nc4ccccc4c32)C(=O)CN(C)CC)c1 [Example 150, Ethyl 2-{3-[(N-{3-[4-amino-2-(2-methoxyethyl)-1H-imidazo[4,5-c]quinolin-1-yl]propyl}-2-{ethyl(methyl)amino}acetamido)methyl]phenoxy}-2-methylpropanoate] | 84.6 nM
CCN(CC)CC(=O)N(CCn1c(CCOC)nc2c(N)nc3ccccc3c21)Cc1cccc(OCC(=O)OC(C)C)c1 [Example 103, Isopropyl 2-{3-[(N-{2-[4-amino-2-(2-methoxyethyl)-1H-imidazo[4,5-c]quinolin-1-yl]ethyl}-2-{diethylamino}acetamido)methyl]phenoxy}acetate] | > 10000 nM
